{"source": "patent US20180280349A1", "about": "“METHODS OF TREATING CYSTIC FIBROSIS IN PATIENTS WITH RESIDUAL FUNCTION MUTATIONS” (Vertex Pharmaceuticals Incorporated, priority 2017, published 2018)", "key": {"[1]": {"system": "cystic fibrosis patients with splice and missense mutations", "assay": "Clinical trial in 248 cystic fibrosis patients with splice and missense (residual function) mutations: placebo, Compound II alone, Compound I and Compound II", "assay_type": "in vivo, human", "conditions": "100 mg Compound I every 24 hours, 150 mg Compound II every 12 hours", "method": "A clinical trial was conducted with 248 cystic fibrosis patients with splice and missense mutations. Mutations were selected for the study based on the clinical phenotype (pancreatic sufficiency), biomarker data (sweat chloride), and in vitro responsiveness to tezacaftor/ivacaftor. The patients were assigned to one of three treatment groups: placebo, Compound II alone, and Compound I and Compound II. […] As shown in."}, "[2]": {"system": "cystic fibrosis patients heterozygous for the F508del mutation and a CFTR residual function mutation", "assay": "Second clinical trial: eight-week, randomized, double-blind, ivacaftor-controlled, parallel-group study in 150 CF patients", "assay_type": "in vivo, human", "conditions": "active comparator treatment period", "method": "A second clinical trial was conducted with 150 cystic fibrosis patients aged 12 years and older Who were heterozygous for the F508del mutation and a CFTR residual function mutation. This trial was an eight-week, randomized, double-blind, ivacaftor-controlled, parallel-group study in CF patients. Patients were randomized 1:1 to receive tezacaftor/ivacaftor or ivacaftor following a four-week run in of ivacaftor. The mean ppFEV1 at baseline was 64.3%. The treatment difference between tezacaftor/ivacaftor and ivacaftor-treated patients for absolute change in ppFEV1 (primary endpoint) through Week 8 in the active comparator treatment period was 0.3 percentage points.\nResults for tezacaftor/ivacaftor- and ivacaftor-treated patients were similar for absolute change in ppFEV1, relative change in ppFEV1 and CFQ-R Respiratory Domain Score. In the active comparator treatment period, the mean absolute change in ppFEV 1 was 0.5% in the tezacaftor/ivacaftor group and 0.2% in the ivacaftor group; the mean relative change in ppFEV1 was 1.3% in the tezacaftor/ivacaftor group and 0.5% in the ivacaftor group; and the mean absolute change in the pooled CFQ-R respiratory domain score was 0.7 points in the tezacaftor/ivacaftor group and −2.1 points in the ivacaftor group. There was a reduction in sweat chloride in tezacaftor/ivacaftor-treated patients compared to the ivacaftor group (−5.8 mmol/L)."}}}
{"smiles": "CC(C)(C)c1cc(C(C)(C)C)c(NC(=O)c2c[nH]c3ccccc3c2=O)cc1O", "note": "[Compound II, N-(2,4-di-tert-butyl-5-hydroxyphenyl)-4-oxo-1,4-dihydroquinoline-3-carboxamide]", "values": [{"measurement": "increase in CFQ-R score", "setting": "[1]; after 8 weeks of treatment", "result": 9.7, "unit": "points"}, {"measurement": "increase in ppFEV1 (percent predicted forced expiratory volume in one second)", "setting": "[1]; average change from baseline after 4 and 8 weeks of treatment", "result": 4.7, "unit": "percentage points"}, {"measurement": "mean absolute change in the pooled CFQ-R respiratory domain score", "setting": "[2]", "result": "−2.1", "unit": "points"}, {"measurement": "mean relative change in ppFEV1", "setting": "[2]", "result": 0.5, "unit": "%"}, {"measurement": "mean absolute change in ppFEV1", "setting": "[2]; after four-week run in of ivacaftor", "result": 0.2, "unit": "%"}]}
